Source: patent US8889671B2, “Compounds and methods for treating bacterial infections” (AstraZeneca AB, priority 2013, dated 2014)
In brackets after ≈: the same amount, converted by molar mass. Read-outs that look alike come from different tables or passages of the source.

What was measured:
Haemophilus influenzae = assay: Susceptibility testing (MIC) Assay 2, broth microdilution; format: cell-based; settings: ATCC51907, Haemophilus influenzae, ATCC 51907, in vivo strain, read-out: Hin MIC
Pseudomonas aeruginosa = assay: as above; format: cell-based; settings: PAO1, read-out: Pae MIC
Escherichia coli = assay: as above; format: cell-based; settings: K12, read-out: Eco MIC
Klebsiella pneumoniae = assay: as above; format: cell-based; settings: clinical isolate, mucoid, read-out: Kpn MIC
Streptococcus pyogenes = assay: Susceptibility testing (MIC) Assay 1, broth microdilution; format: cell-based; settings: Streptococcus pyogenes, Streptococcus pyrgenes, in vivo strain; read-out: Spy MIC
Staphylococcus aureus = assay: as above; format: cell-based; settings: Staphylococcus aureus
Streptococcus pneumoniae = assay: as above; format: cell-based
Candida albicans = assay: In vitro antibacterial activity of Example 5 (MIC); format: cell-based; settings: ATCC90028; Candida albicans (ATCC 90028 CLSI QC Strain)
Neisseria gonorrhoeae = assay: MIC against 100 N. gonorrhoeae isolates, CLSI reference agar dilution; format: cell-based
B. anthracis = assay: microbe, parasite or virus in culture; format: cell-based, Bacillus anthracis
[1] = test system: Bacteroides thetaiotaomicron; assay: In vitro antibacterial activity of Example 5 against anaerobes (MIC, agar dilution); format: cell-based
Burkholderia cepacia = assay: In vitro antibacterial activity of Example 5 (MIC); format: cell-based
[2] = test system: 7 S. aureus strains and 1 strain of Streptococcus pyogenes; assay: Minimum bactericidal concentration (MBC); format: cell-based, Staphylococcus aureus; Streptococcus pyogenes; settings: 7 S. aureus strains and 1 S. pyogenes strain
Bacteroides fragilis = assay: In vitro antibacterial activity of Example 5 against anaerobes (MIC, agar dilution); format: cell-based
Clostridium difficile = assay: as above; format: cell-based; settings: Clostridioides difficile
B. cereus = assay: microbe, parasite or virus in culture; format: cell-based; settings: Bacillus cereus
[3] = test system: Staphylococcus saprophyticus; assay: In vitro antibacterial activity of Example 5 (MIC); format: cell-based
[4] = azithromycin-intermediate isolates

**Q.** `C[C@@H]1CN2c3c(cc4c(N5C(=O)OC[C@@H]5C)noc4c3F)CC3(C(=O)NC(=O)NC3=O)[C@H]2[C@H](C)O1` [Example 5, (2R,4S,4aS)-11-Fluoro-2,4-dimethyl-8-[(4S)-4-methyl-2-oxo-1,3-oxazolidin-3-yl]-1,2,4,4a-tetrahydro-2′H,6H-spiro[1,4-oxazino[4,3-a][1,2]oxazolo[4,5-g]quinoline-5,5′-pyrimidine]-2′,4′,6′(1′H,3′H)-trione] was tested. Which MIC (Haemophilus influenzae) did it give?
**A.** Its MIC is 0.33 µM (≈ 0.161 µg/mL).

**Q.** And the MIC (Pseudomonas aeruginosa)?
**A.** The MIC was > 200 µM.

**Q.** What about the MIC (Escherichia coli) of the same molecule?
**A.** Its MIC is 4 µM (≈ 1.95 µg/mL).

**Q.** What about the MIC (Klebsiella pneumoniae) of the same molecule?
**A.** Its MIC is > 200 µM.

**Q.** What about the MIC (Streptococcus pyogenes) of the same molecule?
**A.** Its MIC is 0.36 µM (≈ 0.175 µg/mL).

**Q.** What about the MIC (Staphylococcus aureus; Staphylococcus aureus in vivo strain, MSQS, read-out: Sau(d) MIC) of the same molecule?
**A.** The MIC was 0.36 µM (≈ 0.175 µg/mL).

**Q.** What about the MIC (Staphylococcus aureus; in vivo strain, MRQR, read-out: Sau(e) MIC) of the same molecule?
**A.** Its MIC is 0.78 µM (≈ 0.38 µg/mL).

**Q.** And the MIC (Staphylococcus aureus; serum, read-out: Sau(f) MIC)?
**A.** The MIC was 0.71 µM (≈ 0.346 µg/mL).

**Q.** What about the MIC (Streptococcus pneumoniae; in vivo strain (footnote b), read-out: Spn(b) MIC) of the same molecule?
**A.** The MIC was 0.39 µM (≈ 0.19 µg/mL).

**Q.** What about the MIC (Streptococcus pneumoniae; in vivo strain (footnote c), read-out: Spn(c) MIC) of the same molecule?
**A.** Its MIC is 0.46 µM (≈ 0.224 µg/mL).

**Q.** What about the MIC (Candida albicans) of the same molecule?
**A.** Its MIC is > 64 µg/mL.

**Q.** What about the MIC (Neisseria gonorrhoeae; Neisseria gonorrhoeae, ATCC49226, QC strain N. gonorrhoeae ATCC 49226, read-out: MIC) of the same molecule?
**A.** The MIC was 0.06 µg/mL (≈ 0.123 µM).

**Q.** And the MIC (Neisseria gonorrhoeae; Neisseria gonorrhoeae, all 100 N. gonorrhoeae isolates tested, read-out: MIC values)?
**A.** Its MIC is ≤ 0.25 µg/mL.

**Q.** What about the MIC90 (Neisseria gonorrhoeae; Neisseria gonorrhoeae, azithromycin-intermediate isolates, read-out: MIC90) of the same molecule?
**A.** Its MIC90 is 0.12 µg/mL (≈ 0.246 µM).

**Q.** And the MIC (Neisseria gonorrhoeae; Neisseria gonorrhoeae, azithromycin-susceptible and -intermediate isolates, read-out: modal MIC)?
**A.** The MIC was 0.06 µg/mL (≈ 0.123 µM).

**Q.** What about the MIC90 (Neisseria gonorrhoeae; Neisseria gonorrhoeae, azithromycin-susceptible isolates, read-out: MIC90) of the same molecule?
**A.** Its MIC90 is 0.06 µg/mL (≈ 0.123 µM).

**Q.** And the MIC90 (Neisseria gonorrhoeae; Neisseria gonorrhoeae, ciprofloxacin-intermediate and -resistant strains, read-out: MIC90)?
**A.** The MIC90 was 0.12 µg/mL (≈ 0.246 µM).

**Q.** And the MIC (Neisseria gonorrhoeae; Neisseria gonorrhoeae, ciprofloxacin-intermediate and -resistant strains, read-out: modal MIC)?
**A.** Its MIC is 0.06 µg/mL (≈ 0.123 µM).

**Q.** And the MIC90 (Neisseria gonorrhoeae; Neisseria gonorrhoeae, non-susceptible phenotypes, read-out: MIC90)?
**A.** Its MIC90 is 0.06 to 0.12 µg/mL (≈ 0.123 to 0.246 µM).

**Q.** What about the MIC (Neisseria gonorrhoeae; Neisseria gonorrhoeae, penicillin-intermediate and -resistant strains, read-out: modal MIC) of the same molecule?
**A.** The MIC was 0.06 µg/mL (≈ 0.123 µM).

**Q.** What about the MIC90 (Neisseria gonorrhoeae; Neisseria gonorrhoeae, penicillin-intermediate strains, read-out: MIC90) of the same molecule?
**A.** Its MIC90 is 0.06 µg/mL (≈ 0.123 µM).

**Q.** What about the MIC90 (Neisseria gonorrhoeae; Neisseria gonorrhoeae, penicillin-resistant strains, read-out: MIC90) of the same molecule?
**A.** Its MIC90 is 0.12 µg/mL (≈ 0.246 µM).

**Q.** And the MIC90 (Neisseria gonorrhoeae; Neisseria gonorrhoeae, susceptible phenotypes (ciprofloxacin-, tetracycline- and azithromycin-susceptible), read-out: MIC90)?
**A.** The MIC90 was 0.06 µg/mL (≈ 0.123 µM).

**Q.** What about the MIC (Neisseria gonorrhoeae; Neisseria gonorrhoeae, tetracycline-intermediate and -resistant strains, read-out: modal MIC) of the same molecule?
**A.** The MIC was 0.06 µg/mL (≈ 0.123 µM).

**Q.** And the MIC90 (Neisseria gonorrhoeae; Neisseria gonorrhoeae, tetracycline-intermediate strains, read-out: MIC90)?
**A.** The MIC90 was 0.06 µg/mL (≈ 0.123 µM).

**Q.** And the MIC90 (Neisseria gonorrhoeae; Neisseria gonorrhoeae, tetracycline-resistant strains, read-out: MIC90)?
**A.** Its MIC90 is 0.12 µg/mL (≈ 0.246 µM).

**Q.** And the MIC (Neisseria gonorrhoeae; Neisseria gonorrhoeae, various subsets of isolates including those non-susceptible to comparator agents, read-out: modal MIC)?
**A.** Its MIC is 0.06 µg/mL (≈ 0.123 µM).

**Q.** What about the MIC50 (Neisseria gonorrhoeae; Neisseria gonorrhoeae, all 100 N. gonorrhoeae isolates, read-out: MIC50) of the same molecule?
**A.** The MIC50 was 0.06 µg/mL (≈ 0.123 µM).

**Q.** And the MIC90 (Neisseria gonorrhoeae; Neisseria gonorrhoeae, all 100 N. gonorrhoeae isolates, read-out: MIC90)?
**A.** The MIC90 was 0.125 µg/mL (≈ 0.256 µM).

**Q.** What about the MIC (Neisseria gonorrhoeae; QC strain N. gonorrhoeae ATCC 49226) of the same molecule?
**A.** Its MIC is 0.12 µg/mL (≈ 0.246 µM).

**Q.** And the MIC90 (Neisseria gonorrhoeae; all 100 N. gonorrhoeae isolates)?
**A.** Its MIC90 is 0.12 µg/mL (≈ 0.246 µM).

**Q.** And the MIC50 (Neisseria gonorrhoeae; [4])?
**A.** The MIC50 was 0.06 µg/mL (≈ 0.123 µM).

**Q.** What about the “isolates at 0.06 μg/mL” value (Neisseria gonorrhoeae; [4]) of the same molecule?
**A.** The value was 66.7%.

**Q.** What about the MIC50 (Neisseria gonorrhoeae; azithromycin-susceptible isolates) of the same molecule?
**A.** The MIC50 was 0.06 µg/mL (≈ 0.123 µM).

**Q.** And the MIC50 (Neisseria gonorrhoeae; ciprofloxacin-intermediate and -resistant strains)?
**A.** The MIC50 was 0.06 µg/mL (≈ 0.123 µM).

**Q.** What about the MIC50 (Neisseria gonorrhoeae; penicillin-intermediate strains) of the same molecule?
**A.** The MIC50 was 0.06 µg/mL (≈ 0.123 µM).

**Q.** And the MIC50 (Neisseria gonorrhoeae; penicillin-resistant strains)?
**A.** The MIC50 was 0.06 µg/mL (≈ 0.123 µM).

**Q.** And the “isolates at ≦0.06 μg/mL” value (Neisseria gonorrhoeae; penicillin-resistant strains)?
**A.** Its value is 85.7%.

**Q.** What about the MIC50 (Neisseria gonorrhoeae; tetracycline-intermediate strains) of the same molecule?
**A.** Its MIC50 is 0.06 µg/mL (≈ 0.123 µM).

**Q.** And the MIC50 (Neisseria gonorrhoeae; tetracycline-resistant strains)?
**A.** Its MIC50 is 0.06 µg/mL (≈ 0.123 µM).

**Q.** And the “isolates at 0.06 μg/mL” value (Neisseria gonorrhoeae; tetracycline-resistant strains)?
**A.** Its value is 66.7%.

**Q.** What about the MIC range (B. anthracis; B. anthracis, BSL3 testing) of the same molecule?
**A.** Its MIC range is 0.125 to 1 µg/mL.

**Q.** What about the MIC90 (B. anthracis; Bacillus anthracis) of the same molecule?
**A.** Its MIC90 is 0.5 µg/mL (≈ 1.03 µM).

**Q.** What about the MIC ([1]; ATCC29741, Bacteroides thetaiotaomicron (ATCC 29741, CLSI QC Strain)) of the same molecule?
**A.** Its MIC is 8 µg/mL (≈ 16.4 µM).

**Q.** What about the MIC ([1]; Bacteroides thetaiotaomicron) of the same molecule?
**A.** Its MIC is 8 µg/mL (≈ 16.4 µM).

**Q.** What about the MIC (Burkholderia cepacia) of the same molecule?
**A.** Its MIC is 64 µg/mL (≈ 131 µM).

**Q.** What about the “minimum bactericidal concentrations (MBCs) relative to the MIC” value [2] of the same molecule?
**A.** Its value is ≤ 2 fold.

**Q.** And the MIC (Bacteroides fragilis; Bacteroides fragilis (isolates not further specified))?
**A.** The MIC was 8 µg/mL (≈ 16.4 µM).

**Q.** What about the MIC (Bacteroides fragilis; Bacteroides fragilis, ATCC25285, Bacteroides fragilis (ATCC 25285, CLSI QC Strain), read-out: MIC) of the same molecule?
**A.** Its MIC is 2 µg/mL (≈ 4.1 µM).

**Q.** And the MIC (Bacteroides fragilis; Bacteroides fragilis, Bacteroides fragilis (isolates not further specified), read-out: MIC)?
**A.** Its MIC is 4 µg/mL (≈ 8.21 µM).

**Q.** What about the MIC (Clostridium difficile; ATCC70057, Clostridium difficile (ATCC 70057, CLSI QC Strain)) of the same molecule?
**A.** The MIC was 0.125 µg/mL (≈ 0.256 µM).

**Q.** And the MIC (Clostridium difficile; Clostridium difficile)?
**A.** The MIC was 0.125 µg/mL (≈ 0.256 µM).

**Q.** And the MIC90 (B. cereus)?
**A.** The MIC90 was 0.5 µg/mL (≈ 1.03 µM).

**Q.** What about the MIC [3] of the same molecule?
**A.** Its MIC is 0.5 µg/mL (≈ 1.03 µM).

**Q.** And the MIC90 ([3]; S. saprophyticus, n=16)?
**A.** Its MIC90 is 0.5 µg/mL (≈ 1.03 µM).
